Common to all, as to format: cell-based
Experiment [1] concerns DLBCL cell lines. Nature of the experiment: Gene expression profiling (Affymetrix Human Genome U133 Plus 2.0). To be noted: 72 hours. The protocol:
(§1) Biochemical assays utilized the 5-member PRC2 complex (human Flag-EZH2, EED, SUZ12, AEBP2, RbAp48) containing either WT or mutant EZH2, [^3H-]SAM and the indicated peptide substrate; reactions were incubated for 30 minutes. Global histone modification levels were determined by ELISA or western blot methods using antibodies specific for total histone H3, H3K27me1, H3K27me2, or H3K27me3. Cell proliferation and Caspase-3/7 activity were assessed using CellTiter-Glo and Caspase-Glo 3/7 (Promega), respectively. Gene expression profiling was conducted using Affymetrix Human Genome U133 Plus 2.0 microarrays. Differentially-expressed probe sets were determined by fitting the data to a linear model using the limma statistical package (http://www.bioconductor.org) and carrying out pair-wise contrasts of treated versus control. Significant probe sets were filtered for detection (log2 signal threshold of 8), an average fold-change >2 or <−2, or >1.5 or <−1.5, where indicated, with p-values adjusted for multiple testing correction by FDR (Benjamini Hochberg)<0.1. H3K27me3 ChIP reads were aligned using Bowtie (56). H3K27me3 enrichment peaks were identified using SICER (57) with optimized parameters. A custom PERL script was utilized to quantify the average basal H3K27me3 ChIP-seq tag density across gene sets. All in vivo studies were conducted after review by the Institutional Animal Care and Use Committee at GSK and in accordance with the GSK Policy on the Care, Welfare and Treatment of Laboratory Animals. GSK126 and vehicle were administered to mice intraperitoneally. Two-tailed t-tests were conducted assuming two samples of equal variance.
Cells (2×10^5/well) were seeded into six-well tissue culture plates in the appropriate cell culture media 24 hours before treatment. […] Cells were collected into Trizol reagent (Invitrogen) and total RNA was isolated via phenol:chloroform extraction and the RNeasy kit (Qiagen) according to the manufacturer's instructions. Total RNA was labeled and hybridized to Affymetrix Human Genome U133 Plus 2.0 oligonucleotide microarrays arrays according to the manufacturer's instructions (Affymetrix, Santa Clara, Calif., USA) at Expression Analysis (Durham, N.C.). […] Principal component and correlation analysis were used to confirm data reproducibility (FIG. 16).
CEL files, corresponding to individual samples, were processed by the Micro Array Suite 5.0 (MASS) algorithm (http://www.affyrmetrix.com/support/index.affx) where signal values were scaled to a target intensity of 500 and log2 transformed. Differentially expressed probe sets were determined by fitting the data to a linear model and carrying out pair-wise contrasts of treated versus control. […]

Experiment [2] deals with DB. Nature of the experiment: Cell proliferation assay (6 days, CellTiter-Glo). To be noted: Homo sapiens, 144 h, DLBCL, EZH2 Y641N (HET), read-out: AVERAGE GROWTH IC50.
Text: (§2) Thus, Example 22 and Table 6 better reflect the inhibition of HZH2 inhibitors on cell lines, e.g. the lymphoma cell lines. DLBCL cell lines were the most sensitive to EZH2 inhibition (FIG. 11a). […] Evaluation of GSK126 in additional lymphoma cell lines and extensive genomic and epigenomic characterization will be required to fully elucidate the determinants of sensitivity among lymphoma subtypes.
as §1
(§3) The optimal cell seeding was determined empirically for all cell lines by examining the growth of a wide range of seeding densities in a 384-well format to identify conditions that permitted proliferation for 6 days. […] Plates were incubated for 6 days at 37° C. in 5% CO2. Cells were then lysed with CellTiter-Glo (Promega) and chemiluminescent signal was detected with a TECAN Safire2 microplate reader. In addition, an untreated plate of cells was harvested at the time of compound addition (T0) to quantify the starting number of cells. CTG values obtained after the 6 day treatment were expressed as a percent of the T0 value and plotted against compound concentration.
(In general: Cellular ATP, detected with luciferase, serves as a proxy for viable cell number.)

Experiment [3] concerns WILL-1. Nature of the experiment: Cell proliferation assay (6 days, CellTiter-Glo). The following applies: Homo sapiens, 144 h, DLBCL, EZH2 D185H (HET), read-out: AVERAGE GROWTH IC50.
Text: as §2, §1, §3

Experiment [4] has as its system WSU-NHL. The experiment in a line: Cell proliferation assay (6 days, CellTiter-Glo). To be noted: Homo sapiens, 144 h, FL, EZH2 D185H (HET), read-out: AVERAGE GROWTH IC50.
Text: as §2, §1, §3

For experiment [5], the system named is CA46. The experiment in a line: Cell proliferation assay (6 days, CellTiter-Glo). To be noted: Homo sapiens, 144 h, BURKITT, EZH2 D185H (HET), read-out: AVERAGE GROWTH IC50.
Text: as §2, §1, §3

Experiment [6] relates to CI-1. The experiment in a line: Cell proliferation assay (6 days, CellTiter-Glo). The following applies: Homo sapiens, 144 h, B-NHL, EZH2 D185H (HET), read-out: AVERAGE GROWTH IC50.
Text: as §2, §1, §3

The test system of experiment [7] is NU-DUL-1. The experiment in a line: Cell proliferation assay (6 days, CellTiter-Glo). To be noted: Homo sapiens, 144 h, B-NHL, EZH2 WT, read-out: AVERAGE GROWTH IC50.
Text: as §2, §1, §3

Experiment [8] concerns HD-MY-Z. The experiment in a line: Cell proliferation assay (6 days, CellTiter-Glo). To be noted: Homo sapiens, 144 h, HODGKIN'S, EZH2 WT, read-out: AVERAGE GROWTH IC50.
Text: as §2, §1, §3

The test system of experiment [9] is BC-2. The experiment in a line: Cell proliferation assay (6 days, CellTiter-Glo). To be noted: Homo sapiens, 144 h, AIDS-BCBL, EZH2 WT, read-out: AVERAGE GROWTH IC50.
Text: as §2, §1, §3

In experiment [10] the test system is SU-DHL-6. Nature of the experiment: Cell proliferation assay (6 days, CellTiter-Glo). The following applies: Homo sapiens, 144 h, DLBCL, EZH2 Y641N (HET), read-out: AVERAGE GROWTH IC50.
Text: as §2, §1, §3

Experiment [11] relates to SU-DHL-10. The experiment in a line: Cell proliferation assay (6 days, CellTiter-Glo). The following applies: Homo sapiens, SU-DHL10, 144 h, DLBCL, EZH2 Y641F (HET), read-out: AVERAGE GROWTH IC50.
Text: as §2, §1, §3

Experiment [12] concerns BC-1. The experiment in a line: Cell proliferation assay (6 days, CellTiter-Glo). The following applies: Homo sapiens, BC1, 144 h, AIDS-BCBL, EZH2 WT, read-out: AVERAGE GROWTH IC50.
Text: as §2, §1, §3

Experiment [13] relates to Farage. Nature of the experiment: Cell proliferation assay (6 days, CellTiter-Glo). The following applies: Homo sapiens, 144 h, DLBCL, EZH2 D185H (HET), read-out: AVERAGE GROWTH IC50.
Text: as §2, §1, §3

Experiment [14] concerns B-cell lymphoma cell lines. The experiment in a line: Cell proliferation assay (6 days, CellTiter-Glo), panel. The following applies: Homo sapiens, 144 h, read-out: growth IC50.
Text: as §2
Biochemical assays utilized the 5-member PRC2 complex (human Flag-EZH2, EED, SUZ12, AEBP2, RbAp48) containing either WT or mutant EZH2, [^3H-]SAM and the indicated peptide substrate; reactions were incubated for 30 minutes. Global histone modification levels were determined by ELISA or western blot methods using antibodies specific for total histone H3, H3K27me1, H3K27me2, or H3K27me3. Cell proliferation and Caspase-3/7 activity were assessed using CellTiter-Glo and Caspase-Glo 3/7 (Promega), respectively. Gene expression profiling was conducted using Affymetrix Human Genome U133 Plus 2.0 microarrays. Differentially-expressed probe sets were determined by fitting the data to a linear model using the limma statistical package (http://www.bioconductor.org) and carrying out pair-wise contrasts of treated versus control. […] H3K27me3 ChIP reads were aligned using Bowtie (56). […] A custom PERL script was utilized to quantify the average basal H3K27me3 ChIP-seq tag density across gene sets. […]

Where two headings read alike, the source gives them in different places.

Results on 1 compound are retold here after patent US20170348306A1, “METHODS OF TREATING CANCER” (GLAXOSMITHKLINE LLC, priority 2011, published 2017).

For orientation: IC50 means the concentration needed to halve the response being measured. `CC[C@H](C)n1cc(C)c2c(C(=O)NCc3c(C)cc(C)[nH]c3=O)cc(-c3ccc(N4CCNCC4)nc3)cc21` [GSK126]: the “up-regulated probe sets common to at least 4 of 5 mutant cell lines” value in experiment [1] (Pfeiffer, KARPAS-422, WSU-DLCL2, SU-DHL-10, SU-DHL-6, 500 nM) is listed as 35 probe sets. The down-regulated probe sets in experiment [1] (Toledo, 2 μM GSK126) is on record as 10 probe sets. Moreover, in experiment [1] (Toledo, 2 μM GSK126), the up-regulated probe sets is 23 probe sets. Also, in experiment [1] (five most sensitive EZH2 mutant cell lines, 500 nM), the “share of up-regulated among gene expression changes” value is listed as 69-95%. In addition, the IC50 in [2] amounted to 0.861 µM; in experiment [3], 5.53 µM; in experiment [4], 3.54 µM; in [5], 6.58 µM; in experiment [6] it was 4.28 µM; in experiment [7] it was 17.1 µM. In addition, the IC50 is 10.7 µM in experiment [8]; 4.76 µM in [9]; 0.582 µM in experiment [10]; 0.448 µM in [11]; 8.29 µM in experiment [12]; 1.72 µM in experiment [13]. For the same compound, the IC50 is greater than 1.3 µM in [14] (Burkitt (BL) and Hodgkin's (HL) lymphoma cell lines, with the exception of Jiyoye); 0.028 to 0.861 µM in [14] (B-cell, six of the seven most sensitive DLBCL cell lines, harboring Y641N, Y641F, or A677G EZH2 mutations).
